Usually IC50 stands for the concentration needed to halve the response being measured.

One experiment addresses CDK2/Cyclin A2 (Homo sapiens, UniProt P24941). As to the kind of experiment: Inhibition of full length human CDK2/cyclin A using histone H1 as substrate in presence of [gamma-33P]ATP. The format is protein-complex assay.
For the next experiment, the target named is CDK9/cyclin T1 (Homo sapiens, UniProt P50750). The experiment can be described thus: Inhibition of recombinant full length human CDK9/cyclin T expressed in baculovirus infected Sf9 insect cells using YSPTSPSYSPTSPSYSPTSPSKKKK as substrate in presence of [gamma-33P]ATP.
In experiment [1] the target is Dual specificity tyrosine-phosphorylation-regulated kinase 1A (Rattus norvegicus, UniProt Q63470). The experiment can be described thus: Inhibition of recombinant rat DYRK1A kinase domain expressed in bacteria using KKISGRLSPIMTEQ as substrate in presence of [gamma-33P]ATP.
For experiment [2], the target named is Serine/threonine-protein kinase pim-1 (Homo sapiens, UniProt P11309). The experiment can be described thus: Inhibition of recombinant full length human PIM1 expressed in bacteria using histone H1 as substrate in presence of [gamma-33P]ATP.
The target of experiment [3] is T1, Serine/threonine-protein kinase haspin (Homo sapiens) (UniProt Q8TF76).
T1 sequence (whole entry): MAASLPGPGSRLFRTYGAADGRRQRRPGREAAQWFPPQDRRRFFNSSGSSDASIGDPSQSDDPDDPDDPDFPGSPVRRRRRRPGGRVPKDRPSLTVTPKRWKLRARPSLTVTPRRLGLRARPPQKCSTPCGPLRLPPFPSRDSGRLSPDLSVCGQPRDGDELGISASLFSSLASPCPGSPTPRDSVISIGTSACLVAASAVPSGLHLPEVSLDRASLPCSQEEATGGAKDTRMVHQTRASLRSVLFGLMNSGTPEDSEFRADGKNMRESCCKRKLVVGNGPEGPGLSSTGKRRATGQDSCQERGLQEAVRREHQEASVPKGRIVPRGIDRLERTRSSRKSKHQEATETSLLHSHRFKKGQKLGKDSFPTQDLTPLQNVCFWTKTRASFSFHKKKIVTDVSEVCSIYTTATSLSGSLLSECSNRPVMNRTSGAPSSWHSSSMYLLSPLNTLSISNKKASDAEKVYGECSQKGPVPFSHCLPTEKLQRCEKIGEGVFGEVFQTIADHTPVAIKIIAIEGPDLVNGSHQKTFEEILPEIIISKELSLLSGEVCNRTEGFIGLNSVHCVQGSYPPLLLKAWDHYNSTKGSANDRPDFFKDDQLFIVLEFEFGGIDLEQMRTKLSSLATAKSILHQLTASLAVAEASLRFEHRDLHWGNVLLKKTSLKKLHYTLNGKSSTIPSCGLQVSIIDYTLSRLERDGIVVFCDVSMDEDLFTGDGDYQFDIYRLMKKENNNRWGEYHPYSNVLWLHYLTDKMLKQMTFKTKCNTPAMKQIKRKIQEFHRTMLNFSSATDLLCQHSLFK
As to the kind of experiment: Inhibition of recombinant human haspin kinase domain expressed in bacteria assessed as residual activity at 10 uM using histone H3 (1 to 21 residues) peptide as substrate in presence of [gamma-33P]ATP.

The target of the next experiment is Aurora kinase B (Homo sapiens, UniProt Q96GD4). The experiment can be described thus: Inhibition of recombinant full length human aurora B expressed in baculovirus infected Sf9 insect cells assessed as residual activity at 10 uM using MBP as substrate in presence of [gamma-33P]ATP.
The target in experiment [4] is Receptor-interacting serine/threonine-protein kinase 3 (Homo sapiens, UniProt Q9Y572). As to the kind of experiment: Inhibition of recombinant full length human RIPK3 expressed in baculovirus infected Sf9 insect cells assessed as residual activity at 10 uM using MBP as substrate in presence of [gamma-33P]ATP.
In experiment [5] the target is Cyclin-dependent kinase 5/CDK5 activator 1 (Homo sapiens) (UniProt Q00535+Q15078). As to the kind of experiment: Inhibition of recombinant full length human CDK5/p25 expressed in bacteria assessed as residual activity at 10 uM using histone H1 as substrate in presence of [gamma-33P]ATP.
The next experiment deals with CCRF-CEM. The experiment can be described thus: Cytotoxicity against human CCRF-CEM cells assessed as cell growth at 10 uM after 48 hrs by SRB assay relative to control. The format is functional. Particulars: read-out: Activity. (The SRB assay estimates cell density from bound dye.)
Another experiment deals with HL-60(TB). The experiment can be described thus: Cytotoxicity against human HL-60(TB) cells assessed as cell growth at 10 uM after 48 hrs by SRB assay relative to control. The format is functional. Particulars: HL-60, 48 h, read-out: Activity.
The next experiment deals with K562. As to the kind of experiment: Cytotoxicity against human K562 cells assessed as cell growth at 10 uM after 48 hrs by SRB assay relative to control. Particulars: K562, 48 h, read-out: Activity. The format is functional.
Another experiment concerns NCI-H23. As to the kind of experiment: Cytotoxicity against human NCI-H23 cells assessed as cell growth at 10 uM after 48 hrs by SRB assay relative to control. To be noted: NCI-H23, 48 h, read-out: Activity. The format is functional.
For another experiment, the system named is NCI-H460. As to the kind of experiment: Cytotoxicity against human NCI-H460 cells assessed as cell growth at 10 uM after 48 hrs by SRB assay relative to control. The format is functional. To be noted: NCI-H460, 48 h, read-out: Activity.
The test system of another experiment is SF-295. As to the kind of experiment: Cytotoxicity against human SF295 cells assessed as cell growth at 10 uM after 48 hrs by SRB assay relative to control. The format is functional. To be noted: SF-295, 48 h, read-out: Activity.
For the next experiment, the system named is MDA-MB-435. The experiment can be described thus: Cytotoxicity against human MDA-MB-435 cells assessed as cell growth at 10 uM after 48 hrs by SRB assay relative to control. Particulars: MDA-MB-435, 48 h, read-out: Activity. The format is functional.
In the next experiment the test system is UACC-62. The experiment can be described thus: Cytotoxicity against human UACC62 cells assessed as cell growth at 10 uM after 48 hrs by SRB assay relative to control. The format is functional. To be noted: UACC-62, 48 h, read-out: Activity.
The subject of the next experiment is IGROV-1. The experiment can be described thus: Cytotoxicity against human IGROV1 cells assessed as cell growth at 10 uM after 48 hrs by SRB assay relative to control. The format is functional. Particulars: IGROV-1, 48 h, read-out: Activity.
Another experiment deals with OVCAR-8. The experiment can be described thus: Cytotoxicity against human OVCAR8 cells assessed as cell growth at 10 uM after 48 hrs by SRB assay relative to control. The format is functional. To be noted: OVCAR-8, 48 h, read-out: Activity.
The subject of the next experiment is ACHN. As to the kind of experiment: Cytotoxicity against human ACHN cells assessed as cell growth at 10 uM after 48 hrs by SRB assay relative to control. The format is functional. To be noted: read-out: Activity.
A further experiment deals with CAKI-1. The experiment can be described thus: Cytotoxicity against human Caki1 cells assessed as cell growth at 10 uM after 48 hrs by SRB assay relative to control. The format is functional. Particulars: CAKI-1, 48 h, read-out: Activity.
The next experiment has as its system PC-3. The experiment can be described thus: Cytotoxicity against human PC3 cells assessed as cell growth at 10 uM after 48 hrs by SRB assay relative to control. The format is functional. To be noted: PC-3, 48 h, read-out: Activity.
Another experiment deals with DU-145. The experiment can be described thus: Cytotoxicity against human DU145 cells assessed as cell growth at 10 uM after 48 hrs by SRB assay relative to control. The format is functional. Particulars: DU-145, 48 h, read-out: Activity.
The test system of another experiment is MCF7. The experiment can be described thus: Cytotoxicity against human MCF7 cells assessed as cell growth at 10 uM after 48 hrs by SRB assay relative to control. The format is functional. To be noted: MCF7, 48 h, read-out: Activity.
The next experiment relates to COLO 205. The experiment can be described thus: Cytotoxicity against human COLO205 cells assessed as cell growth at 10 uM after 48 hrs by SRB assay relative to control. The format is functional. Particulars: COLO 205, 48 h, read-out: Activity.

SMILES strings stand for the structures.

Chain of Serine/threonine-protein kinase pim-1 (P11309 whole entry): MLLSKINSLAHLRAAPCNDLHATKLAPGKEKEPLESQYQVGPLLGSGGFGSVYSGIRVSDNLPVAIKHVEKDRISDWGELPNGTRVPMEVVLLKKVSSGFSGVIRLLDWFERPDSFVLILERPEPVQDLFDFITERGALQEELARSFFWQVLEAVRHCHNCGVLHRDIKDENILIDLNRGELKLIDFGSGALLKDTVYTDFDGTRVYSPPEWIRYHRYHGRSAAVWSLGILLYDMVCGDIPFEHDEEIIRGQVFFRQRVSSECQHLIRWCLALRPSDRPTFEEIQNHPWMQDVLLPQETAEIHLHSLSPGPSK
Chain of Receptor-interacting serine/threonine-protein kinase 3 (Q9Y572 whole entry, looked up): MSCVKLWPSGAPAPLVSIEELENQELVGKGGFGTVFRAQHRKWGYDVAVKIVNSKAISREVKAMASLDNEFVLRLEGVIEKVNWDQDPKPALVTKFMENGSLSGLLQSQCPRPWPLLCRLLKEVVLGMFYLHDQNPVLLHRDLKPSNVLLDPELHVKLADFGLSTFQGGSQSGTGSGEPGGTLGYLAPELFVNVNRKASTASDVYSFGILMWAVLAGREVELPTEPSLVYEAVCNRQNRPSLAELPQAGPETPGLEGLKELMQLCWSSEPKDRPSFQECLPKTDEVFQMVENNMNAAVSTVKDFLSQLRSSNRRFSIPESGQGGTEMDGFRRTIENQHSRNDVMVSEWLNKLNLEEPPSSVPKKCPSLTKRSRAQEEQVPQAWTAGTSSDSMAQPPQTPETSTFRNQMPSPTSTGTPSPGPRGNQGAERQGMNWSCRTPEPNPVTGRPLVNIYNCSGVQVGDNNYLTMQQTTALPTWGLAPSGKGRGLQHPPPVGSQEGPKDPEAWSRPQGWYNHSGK
Chain of Aurora kinase B (Q96GD4 whole entry): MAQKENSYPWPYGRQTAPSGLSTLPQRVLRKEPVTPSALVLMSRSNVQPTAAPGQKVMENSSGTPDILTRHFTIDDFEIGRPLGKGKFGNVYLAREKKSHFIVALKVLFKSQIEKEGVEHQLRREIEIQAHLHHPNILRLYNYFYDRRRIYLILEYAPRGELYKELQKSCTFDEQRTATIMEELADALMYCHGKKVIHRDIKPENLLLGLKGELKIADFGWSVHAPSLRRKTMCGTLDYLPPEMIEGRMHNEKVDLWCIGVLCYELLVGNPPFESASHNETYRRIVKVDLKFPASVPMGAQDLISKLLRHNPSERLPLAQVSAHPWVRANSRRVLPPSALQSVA
Chain of Cyclin-dependent kinase 5/CDK5 activator 1 (Homo sapiens) (Q00535 whole entry): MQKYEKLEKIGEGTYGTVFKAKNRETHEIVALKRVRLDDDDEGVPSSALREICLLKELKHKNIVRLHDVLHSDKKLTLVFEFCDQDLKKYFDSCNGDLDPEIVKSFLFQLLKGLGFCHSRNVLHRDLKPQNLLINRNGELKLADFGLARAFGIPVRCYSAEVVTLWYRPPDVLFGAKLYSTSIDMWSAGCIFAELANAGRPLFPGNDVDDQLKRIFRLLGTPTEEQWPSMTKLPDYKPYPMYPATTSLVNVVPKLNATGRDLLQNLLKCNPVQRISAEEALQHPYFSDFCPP
Chain of Cyclin-dependent kinase 5/CDK5 activator 1 (Homo sapiens) (Q15078 99-307 partner limits assumed): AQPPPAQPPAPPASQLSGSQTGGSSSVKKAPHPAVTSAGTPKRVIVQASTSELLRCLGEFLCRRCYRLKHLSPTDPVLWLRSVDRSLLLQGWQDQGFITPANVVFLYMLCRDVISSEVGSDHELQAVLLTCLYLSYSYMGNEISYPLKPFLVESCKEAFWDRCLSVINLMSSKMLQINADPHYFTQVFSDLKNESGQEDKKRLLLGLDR
Chain of CDK9/cyclin T1 (O60563 whole entry, the tested form may be a part): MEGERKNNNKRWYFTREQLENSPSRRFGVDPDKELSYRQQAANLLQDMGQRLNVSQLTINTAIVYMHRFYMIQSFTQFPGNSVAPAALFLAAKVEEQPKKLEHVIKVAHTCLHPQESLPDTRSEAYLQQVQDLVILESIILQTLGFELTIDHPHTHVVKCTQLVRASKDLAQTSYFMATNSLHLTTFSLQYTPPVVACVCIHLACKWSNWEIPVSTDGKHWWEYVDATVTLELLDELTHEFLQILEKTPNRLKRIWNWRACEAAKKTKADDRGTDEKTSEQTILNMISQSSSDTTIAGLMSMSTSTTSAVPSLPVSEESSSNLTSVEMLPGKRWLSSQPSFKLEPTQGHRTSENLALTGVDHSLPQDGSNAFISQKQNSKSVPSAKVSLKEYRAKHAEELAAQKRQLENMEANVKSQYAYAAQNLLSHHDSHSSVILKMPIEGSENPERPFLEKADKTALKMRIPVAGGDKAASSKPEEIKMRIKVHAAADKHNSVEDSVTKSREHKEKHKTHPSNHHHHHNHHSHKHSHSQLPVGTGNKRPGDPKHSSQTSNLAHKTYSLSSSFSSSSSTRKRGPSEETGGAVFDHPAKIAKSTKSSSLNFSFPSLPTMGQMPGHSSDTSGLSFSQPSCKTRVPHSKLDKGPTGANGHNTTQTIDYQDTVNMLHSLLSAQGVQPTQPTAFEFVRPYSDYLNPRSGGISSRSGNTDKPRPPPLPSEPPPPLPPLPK
Chain of CDK9/cyclin T1 (P50750 whole entry, the tested form may be a part): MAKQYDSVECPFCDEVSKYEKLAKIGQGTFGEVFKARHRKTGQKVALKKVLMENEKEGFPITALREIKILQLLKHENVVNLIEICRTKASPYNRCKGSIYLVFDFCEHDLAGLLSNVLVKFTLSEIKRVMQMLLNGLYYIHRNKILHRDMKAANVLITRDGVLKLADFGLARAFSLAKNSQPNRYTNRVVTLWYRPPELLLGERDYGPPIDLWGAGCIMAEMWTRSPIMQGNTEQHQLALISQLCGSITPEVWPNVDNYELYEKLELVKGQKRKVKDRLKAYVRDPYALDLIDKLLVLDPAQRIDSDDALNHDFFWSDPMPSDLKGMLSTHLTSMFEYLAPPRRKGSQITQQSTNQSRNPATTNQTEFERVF

Take `CC(C)n1cc(C2=C(c3c[nH]c4ccccc34)C(=O)N(O)C2=O)c2ccccc21`: the IC50 on CDK2/Cyclin A2 was more than 10 µM; on CDK9/cyclin T1 it was more than 10000 nM; in [1], more than 10 µM; in experiment [2] it was more than 10 µM. Moreover, the Activity in experiment [3] was 123%; at Aurora kinase B, 147%; in [4] it was 97%; in experiment [5], 71%. For the same compound, the growth at 10 µM in the experiment with CCRF-CEM was 95.8%; in the experiment with HL-60(TB), 82.6%; in the experiment with K562, 86.3%; with NCI-H23 it was 88.2%; with NCI-H460 it was 95.3%; in the experiment with SF-295, 99.7%. Besides, the growth at 10 µM amounted to 102% in the experiment on MDA-MB-435; 90% with UACC-62; 111% with IGROV-1; 107% in the experiment with OVCAR-8; 99.6% with ACHN; 78.3% with CAKI-1. Also, the growth at 10 µM with PC-3 is 99.7%; with DU-145, 107%; in the experiment on MCF7, 77.1%; with COLO 205, 98.5%.
Consider `Cn1cc(C2=C(c3c[nH]c4ccccc34)C(=O)N(O)C2=O)c2ccccc21`, for which the IC50 at CDK2/Cyclin A2 is more than 10 µM; on CDK9/cyclin T1, 2000 nM; in [1], more than 10 µM; in experiment [2] it was 5 µM. Also, the Activity came out at 112% in experiment [3], 79% at Aurora kinase B, 100% in experiment [4] and 66% in experiment [5]. The growth at 10 µM with CCRF-CEM is 82.2%; with HL-60(TB), 72.8%; with K562, 50.2%; in the experiment on NCI-H23 it was 76.9%; in the experiment with NCI-H460, 87.4%; with SF-295 it was 88.8%. Also, the growth at 10 µM amounted to 17.1% with MDA-MB-435; 77.4% in the experiment with UACC-62; 83% in the experiment on IGROV-1; 95.6% in the experiment on OVCAR-8; 77.9% with ACHN; 61.5% with CAKI-1. The growth at 10 µM with PC-3 was 78.7%; in the experiment on DU-145, 100%; in the experiment on MCF7, 30.9%; in the experiment on COLO 205, 86%.
For the compound `Cn1cc(C2=C(c3cn(C)c4ncccc34)C(=O)NC2=O)c2ccccc21`, the IC50 on CDK2/Cyclin A2 is 0.1 µM; on CDK9/cyclin T1, 80 nM; in [1], more than 10 µM; in [2] it was 2 µM. The Activity in experiment [3] was 101%; on Aurora kinase B, 84%; in [4], 79%; in experiment [5], -1%. Moreover, the growth at 10 µM was 6.61 to 9% in the experiment on CCRF-CEM; 3.55 to 9% in the experiment with HL-60(TB); 16 to 19.9% with K562; 30 to 49.3% in the experiment with NCI-H23; 19 to 19.5% in the experiment on NCI-H460; 9.52% in the experiment on SF-295. Further, the growth at 10 µM is 12.9 to 14% in the experiment on MDA-MB-435; 27 to 36.6% in the experiment on UACC-62; 8 to 70.8% in the experiment on IGROV-1; 23 to 53.8% in the experiment on OVCAR-8; 8 to 26.5% in the experiment with ACHN; 35% in the experiment with CAKI-1. In addition, the growth at 10 µM with PC-3 was 23 to 44.6%; in the experiment with DU-145, 36 to 63.2%; in the experiment with MCF7, 13 to 22.7%; with COLO 205, -63%.

For the origin of these results see ChEMBL document CHEMBL4229455, “Synthesis and anticancer activity of novel bisindolylhydroxymaleimide derivatives with potent GSK-3 kinase inhibition” (Bioorg Med Chem, 2018).
